Reference: ChEMBL document CHEMBL5442175, “EUbOPEN Chemogenomics Library - PDSP Secondary Binding” (2024)
Where a name gives a salt, the structure may show the parent alone.

What was measured:
[1] = molecular target: Sodium-dependent noradrenaline transporter (Homo sapiens, UniProt P23975); experiment: (§1) PDSP Secondary Binding target: SLC6A2 - Compounds are tested at 10 uM concentration, plate are incubated at room temperature in the dark for 90 minutes. Reaction are stopped by vacuum filtration onto 0.3% polyethyleneimine soaked filter mats using Filtermate harvester. Scintillation cocktail is then melted onto microwave-dried filters on a hot plate and the radio activity is counted in Microbia counter.
Chain of Sodium-dependent noradrenaline transporter (P23975 whole entry): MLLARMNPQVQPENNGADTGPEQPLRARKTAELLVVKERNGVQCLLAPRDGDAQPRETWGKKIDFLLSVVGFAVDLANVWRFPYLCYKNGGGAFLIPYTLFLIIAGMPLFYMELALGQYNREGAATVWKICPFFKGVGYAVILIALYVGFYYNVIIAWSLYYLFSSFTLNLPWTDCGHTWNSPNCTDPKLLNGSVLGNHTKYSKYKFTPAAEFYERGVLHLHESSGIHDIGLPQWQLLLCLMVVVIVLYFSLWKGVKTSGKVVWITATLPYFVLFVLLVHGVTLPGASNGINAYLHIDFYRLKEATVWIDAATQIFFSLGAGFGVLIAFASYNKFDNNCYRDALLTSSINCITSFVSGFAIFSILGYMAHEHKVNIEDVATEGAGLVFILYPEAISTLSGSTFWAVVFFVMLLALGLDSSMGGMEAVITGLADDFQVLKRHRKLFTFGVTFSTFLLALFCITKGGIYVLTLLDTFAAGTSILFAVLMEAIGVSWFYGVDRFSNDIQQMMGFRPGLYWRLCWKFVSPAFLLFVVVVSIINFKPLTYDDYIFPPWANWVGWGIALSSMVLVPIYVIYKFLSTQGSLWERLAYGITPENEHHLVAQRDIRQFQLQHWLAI

[2] = molecular target: Sodium-dependent dopamine transporter (Homo sapiens, UniProt Q01959); experiment: as §1, with “SLC6A3” for “SLC6A2”
Chain of Sodium-dependent dopamine transporter (Q01959 whole entry): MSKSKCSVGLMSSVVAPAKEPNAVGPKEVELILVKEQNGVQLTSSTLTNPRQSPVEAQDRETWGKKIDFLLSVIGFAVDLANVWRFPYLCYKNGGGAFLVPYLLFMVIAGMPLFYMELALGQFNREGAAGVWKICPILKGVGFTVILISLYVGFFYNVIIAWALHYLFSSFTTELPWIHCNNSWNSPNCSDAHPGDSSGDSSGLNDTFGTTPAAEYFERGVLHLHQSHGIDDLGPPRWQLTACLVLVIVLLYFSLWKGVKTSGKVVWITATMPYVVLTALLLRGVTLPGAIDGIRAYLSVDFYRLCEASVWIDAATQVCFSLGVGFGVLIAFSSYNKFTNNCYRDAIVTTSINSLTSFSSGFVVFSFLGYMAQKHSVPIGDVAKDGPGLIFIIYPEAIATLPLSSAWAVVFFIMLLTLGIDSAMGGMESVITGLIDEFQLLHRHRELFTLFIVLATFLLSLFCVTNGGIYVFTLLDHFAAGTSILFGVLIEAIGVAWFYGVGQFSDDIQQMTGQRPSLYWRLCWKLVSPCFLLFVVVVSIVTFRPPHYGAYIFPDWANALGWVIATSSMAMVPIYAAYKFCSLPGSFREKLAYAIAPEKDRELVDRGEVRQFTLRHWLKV

[3] = molecular target: Sodium-dependent serotonin transporter (Homo sapiens, UniProt P31645); experiment: as §1, with “SLC6A4” for “SLC6A2”
Chain of Sodium-dependent serotonin transporter (P31645 whole entry): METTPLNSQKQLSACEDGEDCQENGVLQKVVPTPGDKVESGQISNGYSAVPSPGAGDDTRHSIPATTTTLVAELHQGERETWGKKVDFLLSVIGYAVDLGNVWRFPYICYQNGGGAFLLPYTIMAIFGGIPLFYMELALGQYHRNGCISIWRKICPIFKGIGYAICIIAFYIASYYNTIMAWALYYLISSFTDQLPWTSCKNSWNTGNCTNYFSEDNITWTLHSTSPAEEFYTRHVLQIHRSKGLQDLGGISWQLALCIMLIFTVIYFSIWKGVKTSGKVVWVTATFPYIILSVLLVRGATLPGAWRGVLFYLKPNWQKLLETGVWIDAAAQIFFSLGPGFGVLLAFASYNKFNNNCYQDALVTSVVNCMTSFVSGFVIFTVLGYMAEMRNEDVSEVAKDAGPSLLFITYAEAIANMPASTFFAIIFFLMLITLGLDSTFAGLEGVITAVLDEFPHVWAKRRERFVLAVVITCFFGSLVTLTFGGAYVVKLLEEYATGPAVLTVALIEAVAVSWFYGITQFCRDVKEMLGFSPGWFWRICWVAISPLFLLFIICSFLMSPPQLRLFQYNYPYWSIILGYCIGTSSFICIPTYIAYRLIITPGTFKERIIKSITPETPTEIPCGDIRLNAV

[4] = molecular target: T1, Muscarinic acetylcholine receptor M1 (Homo sapiens, UniProt P11229); experiment: as §1, with “CHRM1” for “SLC6A2”
T1 sequence (P11229 whole entry): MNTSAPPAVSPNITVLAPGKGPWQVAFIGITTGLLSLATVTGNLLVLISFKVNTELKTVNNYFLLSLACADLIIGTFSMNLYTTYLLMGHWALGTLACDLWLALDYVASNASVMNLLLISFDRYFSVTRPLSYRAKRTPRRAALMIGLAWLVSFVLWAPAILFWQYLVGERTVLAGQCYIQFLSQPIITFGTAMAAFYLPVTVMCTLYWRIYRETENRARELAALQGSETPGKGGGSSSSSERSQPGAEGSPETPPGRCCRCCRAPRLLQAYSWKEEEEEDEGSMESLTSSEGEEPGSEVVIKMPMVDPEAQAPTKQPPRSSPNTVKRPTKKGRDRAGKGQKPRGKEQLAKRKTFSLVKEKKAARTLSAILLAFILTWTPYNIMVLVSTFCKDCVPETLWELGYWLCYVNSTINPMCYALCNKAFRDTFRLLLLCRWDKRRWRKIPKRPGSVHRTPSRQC

D(1B) dopamine receptor = D(1B) dopamine receptor (Homo sapiens, UniProt P21918); experiment: as §1, with “DRD5” for “SLC6A2”
Chain of D(1B) dopamine receptor (P21918 whole entry): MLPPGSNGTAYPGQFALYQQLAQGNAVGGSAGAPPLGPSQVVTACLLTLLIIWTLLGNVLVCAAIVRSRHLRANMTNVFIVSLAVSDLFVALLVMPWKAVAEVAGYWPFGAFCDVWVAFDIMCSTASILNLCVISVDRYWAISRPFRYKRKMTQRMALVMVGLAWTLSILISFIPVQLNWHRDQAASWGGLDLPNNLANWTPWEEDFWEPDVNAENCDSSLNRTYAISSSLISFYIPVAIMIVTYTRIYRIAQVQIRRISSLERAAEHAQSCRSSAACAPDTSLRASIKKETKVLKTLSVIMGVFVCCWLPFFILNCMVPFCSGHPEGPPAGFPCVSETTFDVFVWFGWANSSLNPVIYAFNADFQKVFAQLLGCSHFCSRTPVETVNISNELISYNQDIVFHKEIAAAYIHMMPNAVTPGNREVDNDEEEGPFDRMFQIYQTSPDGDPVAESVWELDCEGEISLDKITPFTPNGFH

Mu-type opioid receptor = Mu-type opioid receptor (Homo sapiens, UniProt P35372); experiment: as §1, with “OPRM1” for “SLC6A2”
Chain of Mu-type opioid receptor (P35372 whole entry): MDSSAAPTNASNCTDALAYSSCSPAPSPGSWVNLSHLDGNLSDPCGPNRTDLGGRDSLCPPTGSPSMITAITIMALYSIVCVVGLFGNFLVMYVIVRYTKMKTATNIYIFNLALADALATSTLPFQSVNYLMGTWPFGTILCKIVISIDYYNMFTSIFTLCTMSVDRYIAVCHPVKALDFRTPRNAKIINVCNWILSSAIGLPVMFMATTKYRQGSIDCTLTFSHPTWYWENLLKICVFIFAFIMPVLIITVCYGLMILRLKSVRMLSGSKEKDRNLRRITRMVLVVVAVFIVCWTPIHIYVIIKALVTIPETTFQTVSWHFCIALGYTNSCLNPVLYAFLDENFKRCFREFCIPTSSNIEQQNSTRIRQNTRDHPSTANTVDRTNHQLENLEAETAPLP

[5] = molecular target: T2, Alpha-2C adrenergic receptor (Homo sapiens, UniProt P18825); experiment: as §1, with “ADRA2C” for “SLC6A2”
T2 sequence (P18825 whole entry): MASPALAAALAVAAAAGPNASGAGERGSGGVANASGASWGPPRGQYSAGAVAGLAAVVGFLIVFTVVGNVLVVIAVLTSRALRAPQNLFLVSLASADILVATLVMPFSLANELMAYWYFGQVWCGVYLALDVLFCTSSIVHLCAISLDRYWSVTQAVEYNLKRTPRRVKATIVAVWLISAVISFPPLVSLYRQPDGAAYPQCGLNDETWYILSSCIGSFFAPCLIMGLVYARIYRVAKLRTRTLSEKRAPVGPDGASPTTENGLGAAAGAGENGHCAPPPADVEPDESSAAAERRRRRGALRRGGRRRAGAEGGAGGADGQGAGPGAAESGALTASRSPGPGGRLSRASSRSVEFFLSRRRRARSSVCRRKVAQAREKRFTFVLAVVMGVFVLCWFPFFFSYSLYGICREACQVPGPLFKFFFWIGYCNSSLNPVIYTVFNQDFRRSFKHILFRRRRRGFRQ

D(2) dopamine receptor = D(2) dopamine receptor (Homo sapiens, UniProt P14416); experiment: as §1, with “DRD2” for “SLC6A2”
Chain of D(2) dopamine receptor (P14416 whole entry): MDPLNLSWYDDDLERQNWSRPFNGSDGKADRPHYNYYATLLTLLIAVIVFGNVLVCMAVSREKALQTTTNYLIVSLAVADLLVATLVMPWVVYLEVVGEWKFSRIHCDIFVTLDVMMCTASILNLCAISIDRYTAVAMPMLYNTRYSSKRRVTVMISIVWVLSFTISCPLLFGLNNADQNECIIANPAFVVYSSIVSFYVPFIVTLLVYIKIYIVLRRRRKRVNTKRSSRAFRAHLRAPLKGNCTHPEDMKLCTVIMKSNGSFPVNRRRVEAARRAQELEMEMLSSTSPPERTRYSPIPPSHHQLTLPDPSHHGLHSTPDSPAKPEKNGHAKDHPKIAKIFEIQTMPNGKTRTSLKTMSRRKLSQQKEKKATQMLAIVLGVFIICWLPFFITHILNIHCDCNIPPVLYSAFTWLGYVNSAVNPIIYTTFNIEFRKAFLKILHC

[6] = molecular target: T3, Muscarinic acetylcholine receptor M5 (Homo sapiens, UniProt P08912); experiment: as §1, with “CHRM5” for “SLC6A2”
T3 sequence (P08912 whole entry): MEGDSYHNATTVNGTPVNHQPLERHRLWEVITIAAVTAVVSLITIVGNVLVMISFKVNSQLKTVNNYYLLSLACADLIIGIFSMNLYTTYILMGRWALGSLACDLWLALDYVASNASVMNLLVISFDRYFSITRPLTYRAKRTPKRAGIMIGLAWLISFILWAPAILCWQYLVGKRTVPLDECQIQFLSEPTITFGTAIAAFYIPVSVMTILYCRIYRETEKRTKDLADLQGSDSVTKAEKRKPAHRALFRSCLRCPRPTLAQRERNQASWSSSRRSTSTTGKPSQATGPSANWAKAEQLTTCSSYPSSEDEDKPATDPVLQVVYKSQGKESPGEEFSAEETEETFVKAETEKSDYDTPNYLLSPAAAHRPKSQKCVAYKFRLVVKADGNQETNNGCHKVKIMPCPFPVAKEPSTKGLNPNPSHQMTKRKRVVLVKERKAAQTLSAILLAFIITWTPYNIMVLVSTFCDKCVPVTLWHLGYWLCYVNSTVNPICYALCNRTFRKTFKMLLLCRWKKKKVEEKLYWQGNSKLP

[7] = molecular target: 5-hydroxytryptamine receptor 2A (Homo sapiens, UniProt P28223); experiment: as §1, with “HTR2A” for “SLC6A2”
Chain of 5-hydroxytryptamine receptor 2A (P28223 whole entry): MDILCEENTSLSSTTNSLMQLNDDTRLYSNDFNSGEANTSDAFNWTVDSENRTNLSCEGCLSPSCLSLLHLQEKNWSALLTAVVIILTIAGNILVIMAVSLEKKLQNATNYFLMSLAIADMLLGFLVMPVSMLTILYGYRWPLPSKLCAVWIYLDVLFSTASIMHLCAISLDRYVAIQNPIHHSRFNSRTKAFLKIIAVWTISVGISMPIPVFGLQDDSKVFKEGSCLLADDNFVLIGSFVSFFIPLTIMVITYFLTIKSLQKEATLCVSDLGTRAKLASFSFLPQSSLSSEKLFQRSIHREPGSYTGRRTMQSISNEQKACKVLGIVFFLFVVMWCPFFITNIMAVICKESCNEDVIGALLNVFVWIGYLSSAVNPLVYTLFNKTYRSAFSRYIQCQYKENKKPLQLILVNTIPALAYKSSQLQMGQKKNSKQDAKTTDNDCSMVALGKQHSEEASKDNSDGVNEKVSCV

[8] = molecular target: 5-hydroxytryptamine receptor 2B (Homo sapiens, UniProt P41595); experiment: as §1, with “HTR2B” for “SLC6A2”
Chain of 5-hydroxytryptamine receptor 2B (P41595 whole entry): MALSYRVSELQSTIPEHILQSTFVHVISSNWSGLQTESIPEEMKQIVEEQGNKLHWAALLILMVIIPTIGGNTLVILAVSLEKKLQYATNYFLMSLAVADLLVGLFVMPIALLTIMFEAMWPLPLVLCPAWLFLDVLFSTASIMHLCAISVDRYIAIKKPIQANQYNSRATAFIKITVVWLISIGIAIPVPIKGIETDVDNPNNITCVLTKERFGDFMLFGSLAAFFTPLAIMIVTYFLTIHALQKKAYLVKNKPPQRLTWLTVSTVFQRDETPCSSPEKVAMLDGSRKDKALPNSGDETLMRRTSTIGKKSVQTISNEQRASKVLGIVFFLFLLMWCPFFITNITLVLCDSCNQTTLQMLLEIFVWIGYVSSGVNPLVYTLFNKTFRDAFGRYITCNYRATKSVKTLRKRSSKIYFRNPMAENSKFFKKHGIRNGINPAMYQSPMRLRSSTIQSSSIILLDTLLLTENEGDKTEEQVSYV

[9] = molecular target: Muscarinic acetylcholine receptor M3 (Homo sapiens, UniProt P20309); experiment: as §1, with “CHRM3” for “SLC6A2”
Chain of Muscarinic acetylcholine receptor M3 (P20309 whole entry): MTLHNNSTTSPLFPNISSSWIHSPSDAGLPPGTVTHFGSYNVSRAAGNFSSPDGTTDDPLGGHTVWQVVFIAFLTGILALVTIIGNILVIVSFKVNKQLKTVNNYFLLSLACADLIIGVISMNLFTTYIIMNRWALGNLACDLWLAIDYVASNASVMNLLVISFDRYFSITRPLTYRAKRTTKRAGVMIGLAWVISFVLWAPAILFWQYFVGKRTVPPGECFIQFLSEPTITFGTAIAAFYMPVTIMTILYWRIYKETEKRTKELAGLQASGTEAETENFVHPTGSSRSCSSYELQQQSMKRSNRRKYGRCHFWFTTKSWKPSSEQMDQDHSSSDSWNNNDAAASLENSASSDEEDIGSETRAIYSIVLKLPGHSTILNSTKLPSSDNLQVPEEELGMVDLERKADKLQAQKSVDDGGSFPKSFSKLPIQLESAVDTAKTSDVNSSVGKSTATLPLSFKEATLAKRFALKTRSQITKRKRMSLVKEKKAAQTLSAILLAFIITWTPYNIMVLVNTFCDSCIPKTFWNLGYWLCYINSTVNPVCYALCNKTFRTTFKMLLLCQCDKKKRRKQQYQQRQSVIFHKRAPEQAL

Translocator protein = Translocator protein (Homo sapiens, UniProt P30536); experiment: as §1, with “TSPO” for “SLC6A2”
Chain of Translocator protein (P30536 whole entry): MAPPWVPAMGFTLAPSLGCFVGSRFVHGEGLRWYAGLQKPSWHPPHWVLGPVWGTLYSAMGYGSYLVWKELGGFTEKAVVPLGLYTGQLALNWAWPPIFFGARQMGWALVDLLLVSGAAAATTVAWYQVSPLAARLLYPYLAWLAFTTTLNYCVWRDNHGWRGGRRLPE

CN1CCN(c2ccc(Nc3c4ccccc4nc4ccccc34)cc2)CC1
Ki [1]: 120 nM
Ki [2]: 451 nM
Ki [3]: 1150 nM
Ki [4]: 717 nM

Cc1nc2sccn2c(=O)c1CCN1CCC(=C(c2ccc(F)cc2)c2ccc(F)cc2)CC1 [RITANSERIN]
Ki (D(1B) dopamine receptor): 493 nM
Ki [1]: 685 nM
Ki [2]: 318 nM
Ki (Mu-type opioid receptor): 344 nM
Ki [3]: 568 nM
Ki [5]: 375 nM
Ki (D(2) dopamine receptor): 184 nM

S=C(NCCCc1c[nH]cn1)NCCCN(Cc1ccc(Cl)c(Cl)c1)c1ccc(Br)cn1
Ki [6]: 491 nM
Ki (D(1B) dopamine receptor): 1980 nM
Ki [1]: 618 nM
Ki [2]: 295 nM
Ki [3]: 209 nM
Ki [5]: 536 nM
Ki [7]: 202 nM
Ki [4]: 2580 nM

CN1C[C@H](C(=O)N[C@]2(C)O[C@@]3(O)[C@@H]4CCCN4C(=O)[C@H](Cc4ccccc4)N3C2=O)C[C@@H]2c3cccc4[nH]cc(c34)C[C@H]21 [DIHYDROERGOTAMINE MESYLATE]
Ki (D(1B) dopamine receptor): 2950 nM
Ki (Mu-type opioid receptor): 154 nM
Ki (D(2) dopamine receptor): 60.9 nM

COc1cc(-n2cnc3cc(-c4ccc(Cl)cc4)sc3c2=O)ccc1OCCN1CCCC1
Ki [6]: 2640 nM
Ki [3]: > 10000 nM
Ki [8]: 528 nM
Ki [4]: 1240 nM
Ki [9]: 4130 nM

Cc1c(P(=S)(c2ccccc2)c2ccccc2)n2ccccc2[n+]1C/C=C/c1ccccc1
Ki [6]: 510 nM
Ki [1]: 956 nM
Ki (Mu-type opioid receptor): 102 nM
Ki [5]: 222 nM
Ki [7]: 2790 nM
Ki [4]: 1180 nM
Ki [9]: 1140 nM

N#Cc1ccc2[nH]cc(CCCCN3CCN(c4ccc5oc(C(N)=O)cc5c4)CC3)c2c1 [VILAZODONE HYDROCHLORIDE]
Ki [1]: 15.5 nM
Ki [2]: 21.8 nM
Ki (Mu-type opioid receptor): 730 nM
Ki [8]: 65 nM
Ki [5]: 1380 nM
Ki (D(2) dopamine receptor): 553 nM

Cc1ccc2c(c1)c1c(n2CCc2ccc(C)nc2)CCN(C)C1 [LATREPIRDINE]
Ki [8]: 603 nM
Ki [5]: 2920 nM
Ki [7]: 726 nM
Ki (D(2) dopamine receptor): 1550 nM

CN1CCCC(n2nc(Cc3ccc(Cl)cc3)c3ccccc3c2=O)CC1 (stereo unspecified) [AZELASTINE HYDROCHLORIDE]
Ki [7]: 230 nM
Ki [9]: > 10000 nM
Ki (D(2) dopamine receptor): 1180 nM

CCc1ccc(OCc2ccccc2C(=O)Nc2ccc3nc(C)cc(N)c3c2)cc1
Ki (Mu-type opioid receptor): 495 nM
Ki [8]: 227 nM
Ki [7]: 548 nM
Ki (Translocator protein): 4010 nM
Ki [4]: 2330 nM

OCc1cc(C(O)CNCCCCCCOCCCCc2ccccc2)ccc1O (stereo unspecified) [SALMETEROL]
Ki [6]: 971 nM
Ki [1]: 382 nM
Ki [2]: 149 nM

CN(C)C(=O)N[C@H]1CC[C@H](CCN2CCN(c3cccc(Cl)c3Cl)CC2)CC1 [CARIPRAZINE HYDROCHLORIDE]
Ki [6]: 1430 nM
Ki [5]: 234 nM

O=S1(=O)c2cccc3cccc(c23)N1CCCN1CCN(c2ccc(F)cc2)CC1 [FANANSERIN]
Ki [1]: > 10000 nM
Ki [2]: 2690 nM
Ki [3]: 1100 nM
Ki [5]: 1030 nM

Cc1nc(-c2ccc(-c3ccc(C(=O)N4CCc5cc6c(cc54)C4(CCN(C)CC4)CO6)cc3)c(C)c2)no1 [SB-224289]
Ki [6]: 344 nM
Ki (D(1B) dopamine receptor): 1080 nM
Ki [1]: 1730 nM
Ki [2]: 1180 nM
Ki [7]: 1780 nM
Ki [4]: 1260 nM
Ki [9]: 926 nM

COc1ccc(NC(=O)c2ccc(-c3ccc(-c4noc(C)n4)cc3C)cc2)cc1OCCN(C)C
Ki [1]: 664 nM
Ki [2]: 984 nM
Ki [3]: 833 nM
Ki [5]: 704 nM
Ki [7]: 35.7 nM
Ki [4]: 1910 nM

O=c1ccc2ccc(OCCCCN3CCN(c4cccc5sccc45)CC3)cc2[nH]1 [BREXPIPRAZOLE]
Ki (D(1B) dopamine receptor): 344 nM
Ki [1]: 689 nM
Ki [2]: 364 nM
Ki [3]: 65.6 nM
Ki [5]: 59.9 nM
Ki [7]: 18.3 nM
Ki (D(2) dopamine receptor): 5.99 nM

COC(=O)C1=C(C)NC(C)=C(C(=O)OCCCN2CCC(c3ccccc3)(c3ccccc3)CC2)[C@H]1c1cccc([N+](=O)[O-])c1 [NIGULDIPINE]
Ki [6]: 718 nM
Ki (D(1B) dopamine receptor): 1240 nM
Ki [1]: 857 nM
Ki [2]: 591 nM
Ki (Mu-type opioid receptor): 129 nM
Ki [3]: 862 nM
Ki (Translocator protein): 953 nM
Ki [9]: 2150 nM
Ki (D(2) dopamine receptor): 280 nM

C[C@H](Cc1cc2c(c(C(N)=O)c1)N(CCCO)CC2)NCCOc1ccccc1OCC(F)(F)F [SILODOSIN]
Ki [8]: 2090 nM
Ki [5]: 360 nM
Ki (D(2) dopamine receptor): 989 nM

CCCCCNC(=N)N/N=C/c1c[nH]c2ccc(OC)cc12 [TEGASEROD MALEATE]
Ki (D(1B) dopamine receptor): 4120 nM
Ki (Mu-type opioid receptor): 2850 nM
Ki [8]: 15.6 nM
Ki [7]: 431 nM
Ki (D(2) dopamine receptor): 297 nM

Clc1cccc(COc2cncc(N3CCNCC3)n2)c1
Ki [6]: 293 nM
Ki [8]: 9.94 nM
Ki [7]: 105 nM
Ki [4]: 955 nM
Ki [9]: 851 nM

CCc1nn(CCCN2CCN(c3cccc(Cl)c3)CC2)c(=O)n1CCOc1ccccc1 [NEFAZODONE HYDROCHLORIDE]
Ki [5]: 359 nM
Ki (Translocator protein): 1990 nM
Ki (D(2) dopamine receptor): 736 nM
